Measured values as given in the supplement of paper PMC10307832.

Tests used:
Test in all cases: relative viability (nuclei count vs DMSO), 5 days (fraction); higher = more cells survive
[1] = compound: Nc1nc(Nc2ccc3c(c2)CC[C@@H](N2CCCC2)CC3)nn1-c1cc2c(nn1)-c1ccccc1CCC2 [Bemcentinib] + Cc1nc(NC(=O)N2CCC[C@H]2C(N)=O)sc1-c1ccnc(C(C)(C)C(F)(F)F)c1 [Alpelisib] (partner 2 µM)
In short: (§1)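 For relative viability, nuclei counts in treated wells were divided by those in vehicle wells. Lung cancer cell lines had been pin-tool dosed in 1536-well plates the day after seeding and cultured for 5 days, then fixed and stained in one step (final 0.05% Triton X-100, 1% formaldehyde, 1 ug/ml Hoechst) and imaged at 4×. Doses were one drug alone or a fixed anchor-drug dose plus five library-drug doses (not always all listed) in √10 steps, and values are duplicate-plate medians.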

[2] = compound: Nc1nc(Nc2ccc3c(c2)CC[C@@H](N2CCCC2)CC3)nn1-c1cc2c(nn1)-c1ccccc1CCC2 [Bemcentinib] + C[C@@H](Oc1cc(-c2cnn(C3CCNCC3)c2)cnc1N)c1c(Cl)ccc(F)c1Cl [Crizotinib] (partner 1 µM)
In short: as §1

[3] = compound: Nc1nc(Nc2ccc3c(c2)CC[C@@H](N2CCCC2)CC3)nn1-c1cc2c(nn1)-c1ccccc1CCC2 [Bemcentinib] + COc1cccc2cc(-c3nc([C@H]4CC[C@H](C(=O)O)CC4)n4ncnc(N)c34)[nH]c12 [OSI-027] (partner 0.5 µM)
In short: as §1

[4] = compound: Nc1nc(Nc2ccc3c(c2)CC[C@@H](N2CCCC2)CC3)nn1-c1cc2c(nn1)-c1ccccc1CCC2 [Bemcentinib] + COc1cc2c(Oc3ccc(NC(=O)C4(C(=O)Nc5ccc(F)cc5)CC4)cc3F)ccnc2cc1OCCCN1CCOCC1 [Foretinib] (partner 0.25 µM)
In short: as §1

Cell Line: H3255
- relative viability ([1]; first compound 0.04 µM): 0.63
- relative viability ([1]; first compound 0.1265 µM): 0.71
- relative viability ([1]; first compound 0.4 µM): 0.713
- relative viability ([1]; first compound 1.265 µM): 0.61
- relative viability ([1]; first compound 4 µM): 0.703
- relative viability ([2]; first compound 0.04 µM): 0.867
- relative viability ([2]; first compound 0.1265 µM): 0.938
- relative viability ([2]; first compound 0.4 µM): 0.914
- relative viability ([2]; first compound 1.265 µM): 0.878
- relative viability ([2]; first compound 4 µM): 0.888
- relative viability ([3]; first compound 0.04 µM): 0.597
- relative viability ([3]; first compound 0.1265 µM): 0.66
- relative viability ([3]; first compound 0.4 µM): 0.558
- relative viability ([3]; first compound 1.265 µM): 0.66
- relative viability ([3]; first compound 4 µM): 0.666
- relative viability ([4]; first compound 0.04 µM): 0.897
- relative viability ([4]; first compound 0.1265 µM): 0.857
- relative viability ([4]; first compound 0.4 µM): 0.766
- relative viability ([4]; first compound 1.265 µM): 0.892
- relative viability ([4]; first compound 4 µM): 0.724

Cell Line: HARA
- relative viability ([1]; first compound 0.04 µM): 0.759
- relative viability ([1]; first compound 0.1265 µM): 0.918
- relative viability ([1]; first compound 0.4 µM): 0.822
- relative viability ([1]; first compound 1.265 µM): 0.866
- relative viability ([1]; first compound 4 µM): 0.936
- relative viability ([2]; first compound 0.04 µM): 1.02
- relative viability ([2]; first compound 0.1265 µM): 1.28
- relative viability ([2]; first compound 0.4 µM): 1.22
- relative viability ([2]; first compound 1.265 µM): 1.08
- relative viability ([2]; first compound 4 µM): 1.03
- relative viability ([3]; first compound 0.04 µM): 0.479
- relative viability ([3]; first compound 0.1265 µM): 0.758
- relative viability ([3]; first compound 0.4 µM): 0.589
- relative viability ([3]; first compound 1.265 µM): 0.453
- relative viability ([3]; first compound 4 µM): 0.469
- relative viability ([4]; first compound 0.04 µM): 0.856
- relative viability ([4]; first compound 0.1265 µM): 1.11
- relative viability ([4]; first compound 0.4 µM): 1.01
- relative viability ([4]; first compound 1.265 µM): 1.04
- relative viability ([4]; first compound 4 µM): 0.958

Cell Line: HCC-15
- relative viability ([1]; first compound 0.04 µM): 0.886
- relative viability ([1]; first compound 0.1265 µM): 0.945
- relative viability ([1]; first compound 0.4 µM): 0.97
- relative viability ([1]; first compound 1.265 µM): 0.92
- relative viability ([1]; first compound 4 µM): 0.889
- relative viability ([2]; first compound 0.04 µM): 0.834
- relative viability ([2]; first compound 0.1265 µM): 0.91
- relative viability ([2]; first compound 0.4 µM): 0.908
- relative viability ([2]; first compound 1.265 µM): 0.871
- relative viability ([2]; first compound 4 µM): 0.92
- relative viability ([3]; first compound 0.04 µM): 0.716
- relative viability ([3]; first compound 0.1265 µM): 0.794
- relative viability ([3]; first compound 0.4 µM): 0.74
- relative viability ([3]; first compound 1.265 µM): 0.726
- relative viability ([3]; first compound 4 µM): 0.815
- relative viability ([4]; first compound 0.04 µM): 1.11
- relative viability ([4]; first compound 0.1265 µM): 1.18
- relative viability ([4]; first compound 0.4 µM): 1.11
- relative viability ([4]; first compound 1.265 µM): 1.04
- relative viability ([4]; first compound 4 µM): 1.11

Cell Line: HCC-44
- relative viability ([1]; first compound 0.04 µM): 0.875
- relative viability ([1]; first compound 0.1265 µM): 0.911
- relative viability ([1]; first compound 0.4 µM): 0.939
- relative viability ([1]; first compound 1.265 µM): 0.967
- relative viability ([1]; first compound 4 µM): 1.05
- relative viability ([2]; first compound 0.04 µM): 0.832
- relative viability ([2]; first compound 0.1265 µM): 0.806
- relative viability ([2]; first compound 0.4 µM): 0.864
- relative viability ([2]; first compound 1.265 µM): 0.813
- relative viability ([2]; first compound 4 µM): 0.852
- relative viability ([3]; first compound 0.04 µM): 0.452
- relative viability ([3]; first compound 0.1265 µM): 0.661
- relative viability ([3]; first compound 0.4 µM): 0.446
- relative viability ([3]; first compound 1.265 µM): 0.483
- relative viability ([3]; first compound 4 µM): 0.511

Cell Line: HCC-78
- relative viability ([1]; first compound 0.04 µM): 0.246
- relative viability ([1]; first compound 0.1265 µM): 0.322
- relative viability ([1]; first compound 0.4 µM): 0.336
- relative viability ([1]; first compound 1.265 µM): 0.39
- relative viability ([1]; first compound 4 µM): 0.33
- relative viability ([2]; first compound 0.04 µM): 0.322
- relative viability ([2]; first compound 0.1265 µM): 0.344
- relative viability ([2]; first compound 0.4 µM): 0.334
- relative viability ([2]; first compound 1.265 µM): 0.334
- relative viability ([2]; first compound 4 µM): 0.328
- relative viability ([3]; first compound 0.04 µM): 0.343
- relative viability ([3]; first compound 0.1265 µM): 0.348
- relative viability ([3]; first compound 0.4 µM): 0.38
- relative viability ([3]; first compound 4 µM): 0.371
- relative viability ([4]; first compound 0.04 µM): 0.578
- relative viability ([4]; first compound 0.1265 µM): 0.486
- relative viability ([4]; first compound 0.4 µM): 0.555
- relative viability ([4]; first compound 4 µM): 0.562

Cell Line: HCC-366
- relative viability ([1]; first compound 0.04 µM): 0.474
- relative viability ([1]; first compound 0.1265 µM): 0.408
- relative viability ([1]; first compound 0.4 µM): 0.572
- relative viability ([1]; first compound 1.265 µM): 0.378
- relative viability ([1]; first compound 4 µM): 0.417
- relative viability ([2]; first compound 0.04 µM): 0.524
- relative viability ([2]; first compound 0.1265 µM): 0.902
- relative viability ([2]; first compound 0.4 µM): 0.583
- relative viability ([2]; first compound 1.265 µM): 0.629
- relative viability ([2]; first compound 4 µM): 0.383
- relative viability ([3]; first compound 0.04 µM): 0.803
- relative viability ([3]; first compound 0.1265 µM): 1.17
- relative viability ([3]; first compound 0.4 µM): 0.921
- relative viability ([3]; first compound 1.265 µM): 0.875
- relative viability ([3]; first compound 4 µM): 0.898
- relative viability ([4]; first compound 0.04 µM): 0.888
- relative viability ([4]; first compound 0.1265 µM): 0.952
- relative viability ([4]; first compound 0.4 µM): 0.946
- relative viability ([4]; first compound 1.265 µM): 0.914
- relative viability ([4]; first compound 4 µM): 0.941

Cell Line: HCC-827
- relative viability ([1]; first compound 0.04 µM): 0.999
- relative viability ([1]; first compound 0.1265 µM): 1.02
- relative viability ([1]; first compound 0.4 µM): 0.909
- relative viability ([1]; first compound 1.265 µM): 0.957
- relative viability ([1]; first compound 4 µM): 0.982
- relative viability ([2]; first compound 0.04 µM): 0.971
- relative viability ([2]; first compound 0.1265 µM): 0.867
- relative viability ([2]; first compound 0.4 µM): 0.914
- relative viability ([2]; first compound 1.265 µM): 1
- relative viability ([2]; first compound 4 µM): 0.939
- relative viability ([3]; first compound 0.04 µM): 0.816
- relative viability ([3]; first compound 0.1265 µM): 0.927
- relative viability ([3]; first compound 0.4 µM): 0.862
- relative viability ([3]; first compound 1.265 µM): 0.84
- relative viability ([3]; first compound 4 µM): 0.848
- relative viability ([4]; first compound 0.04 µM): 1.13
- relative viability ([4]; first compound 0.1265 µM): 1.05
- relative viability ([4]; first compound 0.4 µM): 1.08
- relative viability ([4]; first compound 1.265 µM): 1.09
- relative viability ([4]; first compound 4 µM): 1.08
